This passage reports IC50 results from patent US20080261994A1, “CYCLOPROPANE COMPOUNDS AND PHARMACEUTICAL USE THEREOF” (Japan Tobacco Inc., priority 2003, published 2008).

Holding throughout (assay type): biochemical
Experiment [1] concerns the target T1, Recombinant Human MMP-13 (Homo sapiens, UniProt P45452).
T1 construct: purchased R&D systems 511-MM
Description: MMP-13 inhibitory activity (MMP-13 specific fluorescent substrate with quencher). An outline of the steps:
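IC50 (μM) derived from % inhibition, normalised to wells without enzyme and without inhibitor, fluorescence read at 325/405 nm. Enzyme and compound preceded addition of the quenched 7-MCA…DPA substrate; Tris-HCl buffer, 25 °C for 1 h, acetic-acid stop.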

In experiment [2] the target is T2, aggrecanase-1 (Homo sapiens, UniProt O75173).
T2 sequence (O75173 213-837): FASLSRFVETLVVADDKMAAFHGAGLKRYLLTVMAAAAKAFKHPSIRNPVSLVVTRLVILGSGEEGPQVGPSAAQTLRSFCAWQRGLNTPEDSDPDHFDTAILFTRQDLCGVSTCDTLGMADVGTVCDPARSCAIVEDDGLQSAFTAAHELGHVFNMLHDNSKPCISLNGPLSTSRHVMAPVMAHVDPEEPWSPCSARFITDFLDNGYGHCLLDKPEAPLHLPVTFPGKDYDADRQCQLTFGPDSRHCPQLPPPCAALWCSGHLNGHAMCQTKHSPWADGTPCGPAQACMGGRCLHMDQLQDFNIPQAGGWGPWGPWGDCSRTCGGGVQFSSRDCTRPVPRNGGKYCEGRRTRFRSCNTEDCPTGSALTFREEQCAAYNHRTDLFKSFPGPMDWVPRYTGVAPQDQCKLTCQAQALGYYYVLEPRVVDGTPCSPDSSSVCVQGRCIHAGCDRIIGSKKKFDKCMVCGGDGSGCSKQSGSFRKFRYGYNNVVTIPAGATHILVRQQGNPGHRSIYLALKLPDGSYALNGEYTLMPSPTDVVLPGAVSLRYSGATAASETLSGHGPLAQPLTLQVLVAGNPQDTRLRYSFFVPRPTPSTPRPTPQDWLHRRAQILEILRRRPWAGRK
The experiment can be described thus: Aggrecanase-1 inhibitory action (Particle Assay, GAG release from aggrecan-containing polyacrylamide particles). A digest of the protocol: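 Readout was dimethylmethylene blue absorbance (595 nm) of glycosaminoglycan liberated into supernatant, calibrated with whale chondroitin sulfate. Substrate was aggrecan in polyacrylamide particles, digested 15 h at 37° C in Tris-HCl; TC50 (μM) derived from inhibition relative to no-enzyme and no-inhibitor controls.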

In experiment [3] the target is T3, MMP-1 (Homo sapiens, UniProt P03956).
T3 sequence (P03956 100-469): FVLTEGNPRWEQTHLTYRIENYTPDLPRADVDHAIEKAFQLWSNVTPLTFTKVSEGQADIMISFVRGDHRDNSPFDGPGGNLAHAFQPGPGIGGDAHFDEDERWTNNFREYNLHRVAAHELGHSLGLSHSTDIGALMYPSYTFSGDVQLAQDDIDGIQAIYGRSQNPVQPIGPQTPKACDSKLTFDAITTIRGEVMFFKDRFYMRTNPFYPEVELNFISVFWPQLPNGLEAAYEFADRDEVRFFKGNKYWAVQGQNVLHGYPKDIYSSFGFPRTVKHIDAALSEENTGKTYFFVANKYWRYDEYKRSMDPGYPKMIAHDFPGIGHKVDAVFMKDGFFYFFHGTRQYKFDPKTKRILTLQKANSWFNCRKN
Description: MMP-1 inhibitory action (Type I collagen Activity Measurement kit, FITC-labeled collagen type I).

Setting [4] is: Experimental Example 3, read-out: IC50 MMP13.
Setting [5] is: Experimental Example 1, read-out: IC50 AG1.
The mark [6] stands for this setting: Experimental Example 2, read-out: IC50 MMP1.
Setting [7] is: Recombinant Human MMP-13, fluorescent substrate, 25° C. for 1 h, read-out: IC50 MMP13 (Experimental Example 3).
Where [8] appears, read: aggrecanase-1 inhibitory action, read-out: IC50 AG1 (Experimental Example 1).
Where [9] appears, read: MMP-1 inhibitory action, FITC-labeled collagen type I, 37° C. for 3 hr, read-out: IC50 MMP1 (Experimental Example 2).

pIC50: −log10 of the molar value. Where two headings read alike, the source gives them in different places.

By pIC50 is commonly meant −log10 of the IC50, conventionally taken in molar units. For `O=C(O)C1(NS(=O)(=O)c2ccc(-c3ccc(Cl)cc3)s2)CC1(CCCn1cccn1)c1ccccc1` (stereo not drawn) [Example 2-273], the pIC50 in experiment [1] (setting [4]) was > 7.00; in experiment [2] (setting [5]), > 7.00; in experiment [3] (setting [6]) it was > 6.00.
For the compound `O=C(O)C1(NS(=O)(=O)c2ccc(-c3cc(C(F)(F)F)on3)s2)CC1c1cccc(NS(=O)(=O)N2CCOCC2)c1` (stereo not drawn) [Example 2-267], the pIC50 in experiment [1] (setting [4]) is > 7.00; in experiment [2] (setting [5]), > 7.00; in experiment [3] (setting [6]) it was ≤ 6.00.
Turning to `O=C(O)[C@]1(NS(=O)(=O)c2ccc(-c3cc(-c4ccccc4)on3)s2)C[C@@H]1c1ccccc1` [Example 2-114], the pIC50 was > 7.00 in experiment [1] (setting [7]), ≤ 6.00 in experiment [2] (setting [8]) and > 6.00 in experiment [3] (setting [9]).
Take `CC1[C@H](c2ccccc2)[C@]1(NS(=O)(=O)c1ccc(OCc2ccc(Cl)cc2Cl)cc1)C(=O)NO` (stereo partly drawn) [Example 2-325]: the pIC50 in experiment [1] (setting [4]) is ≤ 6.00; in experiment [2] (setting [5]) it was ≤ 6.00; in experiment [3] (setting [6]) it was ≤ 5.00.
As for `Cc1cc(C2CC2(NS(=O)(=O)c2ccc(-c3cc(C(F)(F)F)on3)s2)C(=O)O)no1` (stereo not drawn) [Example 2-314], the negative-log IC50 (pIC50) was ≤ 5.00 in experiment [1] (setting [4]), ≤ 6.00 in experiment [2] (setting [5]) and ≤ 5.00 in experiment [3] (setting [6]).
Consider `CN(C)C(=O)Cc1cccc(C2CC2(NS(=O)(=O)c2ccc(-c3ccc(Cl)cc3)s2)C(=O)O)c1` (stereo not drawn) [Example 2-189], for which the pIC50 in experiment [1] (setting [7]) is > 7.00; in experiment [2] (setting [8]), > 7.00; in experiment [3] (setting [9]), ≤ 5.00.
Turning to `O=C(NCC1(c2ccccc2)CC1(NS(=O)(=O)c1ccc(-c2ccc(Cl)cc2)s1)C(=O)O)C1CC1` (stereo not drawn) [Example 2-379], the pIC50 in experiment [1] (setting [4]) is > 6.00; in experiment [2] (setting [5]), > 6.00; in experiment [3] (setting [6]), ≤ 6.00.
On to `O=C(O)C1(NS(=O)(=O)c2ccc(-c3ccc(Cl)cc3)s2)C2CCc3ccccc3C21` (stereo not drawn) [Example 2-350], for which the pIC50 is > 7.00 in experiment [1] (setting [4]), > 6.00 in experiment [2] (setting [5]) and ≤ 6.00 in experiment [3] (setting [6]).
Regarding `CC(=O)c1ccc(S(=O)(=O)NC2(C(=O)O)CC2c2ccccc2)s1` (stereo not drawn) [Example 2-66], the figures for the pIC50 in experiment [1] (setting [7]), in experiment [2] (setting [8]) and in experiment [3] (setting [9]) were ≤ 6.00, ≤ 6.00 and ≤ 5.00, respectively.
Turning to `C[C@]1(c2ccccc2)C[C@@]1(NS(=O)(=O)c1ccc(-n2cc(CO)cn2)s1)C(=O)O` [Example 2-603], the pIC50 in experiment [1] (setting [4]), in experiment [2] (setting [5]) and in experiment [3] (setting [6]) was > 6.00 throughout.
As for `C[C@]1(c2ccccc2)C[C@@]1(NS(=O)(=O)c1ccc(/C=C\C(F)(F)F)s1)C(=O)O` [Example 2-563], the pIC50 in experiment [1] (setting [4]), in experiment [2] (setting [5]) and in experiment [3] (setting [6]) was ≤ 6.00 each time.
Take `O=C(O)[C@]1(NS(=O)(=O)c2ccc(-c3cc(C(F)(F)F)on3)s2)C[C@@H]1c1ccccc1` [Example 2-43]: the pIC50 in experiment [1] (setting [7]) was > 7.00; in experiment [2] (setting [8]), > 7.00; in experiment [3] (setting [9]) it was > 6.00.
As to `CC(=O)OCCc1cccc(C2CC2(NS(=O)(=O)c2ccc(-c3ccc(Cl)cc3)s2)C(=O)O)c1` (stereo not drawn) [Example 2-108], the pIC50 in experiment [1] (setting [7]) is > 7.00; in experiment [2] (setting [8]), > 7.00; in experiment [3] (setting [9]), ≤ 6.00.
Consider `O=C(O)C1(NS(=O)(=O)c2ccc(-c3ccc(Cl)cc3)cc2)CC1c1cccc(OCCn2cccn2)c1` (stereo not drawn) [Example 1-75], for which the results for the pIC50 in experiment [1] (setting [7]), in experiment [2] (setting [8]) and in experiment [3] (setting [9]) were > 7.00, > 6.00 and ≤ 6.00, respectively.
For `C[C@]1(c2ccccc2)C[C@@]1(NS(=O)(=O)c1ccc(-c2ccc(Cl)c([N+](=O)[O-])c2)s1)C(=O)O` [Example 2-477], the pIC50 in experiment [1] (setting [4]) is ≤ 6.00; in experiment [2] (setting [5]) it was ≤ 6.00; in experiment [3] (setting [6]), ≤ 5.00.
As for `O=C(NC1CC1)OCC1(c2ccccc2)CC1(NS(=O)(=O)c1ccc(-c2cc(C(F)(F)F)on2)s1)C(=O)O` (stereo not drawn) [Example 2-331], the values for the negative-log IC50 (pIC50) in experiment [1] (setting [4]), in experiment [2] (setting [5]) and in experiment [3] (setting [6]) were > 6.00, > 6.00 and ≤ 6.00, respectively.
In the case of `O=C(O)[C@]1(NS(=O)(=O)c2ccc(-c3cc(C(F)(F)C(F)(F)F)on3)s2)C[C@@H]1c1ccccc1` [Example 2-111], the pIC50 in experiment [1] (setting [7]) was > 6.00; in experiment [2] (setting [8]) it was ≤ 6.00; in experiment [3] (setting [9]), ≤ 5.00.
On to `CC1[C@H](c2ccccc2)[C@]1(NS(=O)(=O)c1ccc(-c2ccc(Cl)cc2F)s1)C(=O)O` (stereo partly drawn) [Example 2-407], for which the results for the pIC50 in experiment [1] (setting [4]), in experiment [2] (setting [5]) and in experiment [3] (setting [6]) were > 7.00, > 7.00 and > 6.00, respectively.
With `CC(C)(O)COc1ccccc1C1CC1(NS(=O)(=O)c1ccc(-c2ccc(Cl)cc2)s1)C(=O)O` (stereo not drawn) [Example 2-25], the pIC50 in experiment [1] (setting [7]) was > 6.00; in experiment [2] (setting [8]), > 7.00; in experiment [3] (setting [9]), ≤ 5.00.
Turning to `CC(C)CC(=O)N1CCN(S(=O)(=O)N[C@@]2(C(=O)O)C[C@@H]2c2ccccc2)CC1` [Example 2-513], the pIC50 in experiment [1] (setting [4]), in experiment [2] (setting [5]) and in experiment [3] (setting [6]) was ≤ 6.00 each time.
In the case of `C[C@]1(c2ccccc2)C[C@@]1(NS(=O)(=O)c1ccc(-c2ccc3c(c2)OC(F)(F)O3)s1)C(=O)O` [Example 2-544], the pIC50 is > 6.00 in experiment [1] (setting [4]), > 6.00 in experiment [2] (setting [5]) and ≤ 6.00 in experiment [3] (setting [6]).
Consider `O=C(O)C1(NS(=O)(=O)c2ccc(-c3ccc(Cl)cc3)s2)CC1Cn1nnc2ccccc2c1=O` (stereo not drawn) [Example 2-47], for which the negative logarithm of the IC50 (pIC50) in experiment [1] (setting [7]) is > 6.00; in experiment [2] (setting [8]), ≤ 6.00; in experiment [3] (setting [9]), ≤ 5.00.
With `CC1[C@H](c2ccccc2)[C@]1(NS(=O)(=O)N1CCN(c2ccc(Br)cc2)CC1)C(=O)O` (stereo partly drawn) [Example 2-458], the pIC50 is > 7.00 in experiment [1] (setting [4]), > 6.00 in experiment [2] (setting [5]) and ≤ 5.00 in experiment [3] (setting [6]).
`O=C(O)[C@]1(NS(=O)(=O)c2ccc(-c3noc4c3CCCC4)s2)C[C@@H]1c1ccccc1` [Example 2-154]: the pIC50 in experiment [1] (setting [7]) is > 6.00; in experiment [2] (setting [8]), ≤ 6.00; in experiment [3] (setting [9]) it was ≤ 5.00.
Regarding `O=C(NCC1(c2ccccc2)CC1(NS(=O)(=O)c1ccc(-c2ccc(Cl)cc2)s1)C(=O)O)c1ccccn1` (stereo not drawn) [Example 2-368], the pIC50 in experiment [1] (setting [4]) was > 6.00; in experiment [2] (setting [5]), > 6.00; in experiment [3] (setting [6]), ≤ 6.00.
For `CC(F)(F)c1cc(-c2ccc(S(=O)(=O)N[C@@]3(C(=O)O)C[C@@H]3c3ccccc3)s2)no1` [Example 2-84], the values for the pIC50 in experiment [1] (setting [7]), in experiment [2] (setting [8]) and in experiment [3] (setting [9]) were > 7.00, > 7.00 and > 6.00, respectively.
With `O=C(O)C1(NS(=O)(=O)N2CCN(c3ccc(F)cc3)CC2)CC1c1ccccc1` (stereo not drawn) [Example 2-67], the pIC50 in experiment [1] (setting [7]) was > 6.00; in experiment [2] (setting [8]) it was ≤ 5.00; in experiment [3] (setting [9]), ≤ 5.00.
`O=C(O)C1(NS(=O)(=O)c2ccc(-c3ccc(Cl)cc3)s2)CC1(COCCO)c1ccccc1` (stereo not drawn) [Example 2-347]: the pIC50 was > 6.00 in experiment [1] (setting [4]), > 7.00 in experiment [2] (setting [5]) and ≤ 5.00 in experiment [3] (setting [6]).
As to `O=C(O)[C@]1(NS(=O)(=O)c2ccc(-n3cc(C(F)(F)F)cn3)nc2)C[C@@H]1c1ccccc1` [Example 2-558], the pIC50 in experiment [1] (setting [4]) was > 6.00; in experiment [2] (setting [5]), ≤ 6.00; in experiment [3] (setting [6]), ≤ 6.00.
For `CN(c1ccccc1)c1ccc(S(=O)(=O)N[C@@]2(C(=O)O)C[C@]2(C)c2ccccc2)s1` [Example 2-515], the negative logarithm of the IC50 (pIC50) in experiment [1] (setting [4]), in experiment [2] (setting [5]) and in experiment [3] (setting [6]) was ≤ 6.00 throughout.
Take `O=C(O)[C@]1(NS(=O)(=O)c2ccc(-c3ccc(Cl)cc3)s2)C[C@@H]1c1ccccc1CO` [Example 2-206]: the pIC50 in experiment [1] (setting [7]) was > 7.00; in experiment [2] (setting [8]), > 7.00; in experiment [3] (setting [9]) it was ≤ 6.00.
